Source: patent US20200277268A1, “PENTAFLUOROPHENYL SULFONAMIDE COMPOUNDS, COMPOSITIONS AND USES THEREOF” (DALRIADA THERAPEUTICS INC., priority 2017, published 2020)

How the values were obtained:
Format in all cases: cell-based
MOLM13 = assay: CellTiter-Blue cell viability, MOLM13; conditions: Homo sapiens, MOLM-13; AML cell line, 72 hours
Procedure: (§1) The anti-cancer efficacy of exemplary compounds of the application were assessed in vitro against different cancer cell lines. Cell viability was examined following treatment at various concentrations of inhibitor (0.097656-50 μM) using a CellTiter-Blue® cell viability assay. 1×10^4 cells/well were plated in 96-well assay plates in culture medium. All cells were grown in DMEM, IMDM and RPMI-1640 supplemented with 10% fetal bovine serum (FBS). In some instances, FBS was removed for periods ranging from 16-24 hours, and re-introduced with test compound addition. After 24 hrs, test compounds and vehicle controls were added to appropriate wells such that the final volume was 100 μl in each well. The cells were cultured for the desired test exposure period (72 hours) at 37° C. and 5% CO2. The assay plates were removed from 3° C. incubator and 20 μl/well of CellTiter-Blue® Reagent was added. The plates were incubated using standard cell culture conditions for 1-4 hours. Afterwards, the plates were shaken for 10 seconds and florescence was recorded at 560/590 nm using a Cytation 3 spectrophotometer. IC50 values were determined using non-linear regression analysis with GraphPad Prism 6.0 (GraphPad Software Inc.).

MV4-11 = assay: CellTiter-Blue cell viability, MV4-11; conditions: for activity in AML cells: AML cells (MV4-11 and MOLM13); for IC50: Homo sapiens, MV4-11, AML cell line, 72 hours; for potency relative to parent I-1 analogue: cell viability, Table 1
Procedure: as §1

[1] = tested on: healthy human lung cells (MRC9); assay: CellTiter-Blue cell viability, MRC9; conditions: non-cancerous, 72 hours
Procedure: as §1

[2] = tested on: primary human fibroblast cells (PHF); assay: CellTiter-Blue cell viability, PHF; conditions: non-cancerous, 72 hours
Procedure: as §1

IC50 (MOLM13) [µM]	IC50 (MV4-11) [µM]	SMILES	activity in AML cells (MV4-11)	potency relative to parent I-1 analogue (MV4-11)	IC50 [1] [µM]	IC50 [2] [µM]
1.35	1.15	CS(=O)(=O)c1ccc(CN(C2CC2)S(=O)(=O)c2c(F)c(F)c(F)c(F)c2F)cc1 [Compound I-24, N-cyclopropyl-2,3,4,5,6-pentafluoro-N-(4(methylsulfonyl)benzyl)benzenesulfonamide]				
0.9	2	COC(=O)c1ccc(CN(C2CC2)S(=O)(=O)c2c(F)c(F)c(F)c(F)c2F)cc1 [Compound I-27, Methyl 4-(((N-cyclopropyl-2,3,4,5,6-pentafluorophenyl)sulfonamido)methyl)benzoate]				
3.96	1.94	COc1cc(CN(C2CC2)S(=O)(=O)c2c(F)c(F)c(F)c(F)c2F)cc(OC)c1O [Compound I-29, N-cyclopropyl-2,3,4,5,6-pentafluoro-N-(4-hydroxy-3,5-dimethoxybenzyl)benzenesulfonamide]			9.7	
5.2	1.53	O=S(=O)(c1c(F)c(F)c(F)c(F)c1F)N(CC#Cc1ccccc1)C1CC1 [Compound I-31, N-cyclopropyl-2,3,4,5,6-pentafluoro-N-(3-phenylprop-2-yn-1-yl)benzenesulfonamide]			15.5	
1.3	1.5	O=S(=O)(c1c(F)c(F)c(F)c(F)c1F)N(Cc1ccccn1)C1CC1 [Compound I-32, N-cyclopropyl-2,3,4,5,6-pentafluoro-N-(pyridin-2-ylmethyl)benzenesulfonamide]				
3.86	3.55	O=S(=O)(c1c(F)c(F)c(F)c(F)c1F)N(Cc1ccoc1)C1CC1 [Compound I-33]			22.1	
7.95	0.96	O=S(=O)(c1c(F)c(F)c(F)c(F)c1F)N(Cc1cccc(N2CCOCC2)c1)C1CC1 [Compound I-34, N-cyclopropyl-2,3,4,5,6-pentafluoro-N-(3-morpholinobenzyl)benzenesulfonamide]			14.1	
3.96	1.7	O=S(=O)(c1c(F)c(F)c(F)c(F)c1F)N(Cc1ccc(F)cc1F)C1CC1 [Compound I-35, N-cyclopropyl-N-(2,4-difluorobenzyl)-2,3,4,5,6-pentafluorobenzenesulfonamide]			13.5	
8.51	1.43	Nc1ccc(-c2ccccc2CN(C2CC2)S(=O)(=O)c2c(F)c(F)c(F)c(F)c2F)cc1 [Compound I-38, N-((4′-amino-[1,1′-biphenyl]-2-yl)methyl)-N-cyclopropyl-2,3,4,5,6-pentafluorobenzenesulfonamide]			13.1	
14.9	1.52	Nc1cccc(-c2ccc(CN(C3CC3)S(=O)(=O)c3c(F)c(F)c(F)c(F)c3F)cc2)c1 [Compound I-39, N-((3′-amino-[1,1′-biphenyl]-4-yl)methyl)-N-cyclopropyl-2,3,4,5,6-pentafluorobenzenesulfonamide]			15.7	
3.2	1	O=C(OCc1ccccc1)c1ccc(CN(C2CC2)S(=O)(=O)c2c(F)c(F)c(F)c(F)c2F)cc1 [Compound I-41, Benzyl 4-(((N-cyclopropyl-2,3,4,5,6-pentafluorophenyl)sulfonamido)methyl)benzoate]				
3.9	2.27	O=S(=O)(c1c(F)c(F)c(F)c(F)c1F)N(Cc1ccccc1F)C1CCC1 [Compound I-45, N-cyclobutyl-2,3,4,5,6-pentafluoro-N-(2-fluorobenzyl)benzenesulfonamide]			14.2	
3.37	4.8	O=S(=O)(c1c(F)c(F)c(F)c(F)c1F)N(Cc1ccc(F)cc1)C1CCOC1 (stereo not shown) [Compound I-51, 2,3,4,5,6-pentafluoro-N-(4-fluorobenzyl)-N-(tetrahydrofuran-3-yl)benzenesulfonamide]				
3.5	4.1	O=S(=O)(c1c(F)c(F)c(F)c(F)c1F)N(Cc1ccncc1)Cc1ccc(F)cc1 [Compound I-52]				
1.5	1.4	O=S(=O)(c1c(F)c(F)c(F)c(F)c1F)N(Cc1ccc(F)cc1)c1ccccc1 [Compound I-53, 2,3,4,5,6-pentafluoro-N-(4-fluorobenzyl)-N-phenylbenzenesulfonamide]				
3.1	0.44	CN(Cc1ccc(F)cc1)S(=O)(=O)c1c(F)c(F)c(F)c(F)c1F [Compound I-58, 2,3,4,5,6-pentafluoro-N-(4-fluorobenzyl)-N-methylbenzenesulfonamide]				

Continued, molecule first:

SMILES	IC50 (MOLM13) [µM]	IC50 (MV4-11) [µM]	activity in AML cells (MV4-11)	potency relative to parent I-1 analogue (MV4-11)	IC50 [1] [µM]	IC50 [2] [µM]
O=S(=O)(c1ccccc1)N(Cc1ccc(F)cc1)C1CC1 [Comparative Example 2, N-cyclopropyl-N-(4-fluorobenzyl)benzenesulfonamide, reference compound]	≥ 25	≥ 25	inactive			
O=S(=O)(NCc1ccc(F)cc1)c1c(F)c(F)c(F)c(F)c1F [Comparative Example 4, 2,3,4,5,6-pentafluoro-N-(4-fluorobenzyl)benzenesulfonamide, reference compound]	4	3.1		less potent	16.8	
O=S(=O)(Nc1ccc(F)cc1)c1c(F)c(F)c(F)c(F)c1F [Comparative Example 5, 2,3,4,5,6-pentafluoro-N-(4-fluorophenyl)benzenesulfonamide, reference compound]	17.6	4.4		less potent		
O=S(=O)(NC1CC1)c1c(F)c(F)c(F)c(F)c1F [Comparative Example 6, N-cyclopropyl-2,3,4,5,6-pentafluorobenzenesulfonamide, reference compound]	7	6.4			19.1	
O=S(=O)(NC1(c2ccccc2)CC1)c1c(F)c(F)c(F)c(F)c1F [Comparative Example 7, 2,3,4,5,6-pentafluoro-N-(1-phenylcyclopropyl)benzenesulfonamide, reference compound]		31				
O=S(=O)(c1c(F)c(F)cc(F)c1F)N(Cc1ccc(F)cc1)C1CC1 [Comparative Example 8, N-cyclopropyl-2,3,5,6-tetrafluoro-N-(4-fluorobenzyl)benzenesulfonamide, reference compound]	> 25	> 12.5	inactive			
O=S(=O)(c1c(F)c(F)c(F)c(F)c1F)N(Cc1ccccc1)Cc1ccc(F)cc1 [Compound I-3]	9.3	0.59			14.4	
CC(=O)N(Cc1ccc(F)cc1)S(=O)(=O)c1c(F)c(F)c(F)c(F)c1F [Compound I-4, N-(4-fluorobenzyl)-N-((perfluorophenyl)sulfonyl)acetamide]	5.1	2.09			25	
O=S(=O)(c1c(F)c(F)c(F)c(F)c1F)N(Cc1ccc(F)cc1)C1CCCC1 [Compound I-5, N-cyclopentyl-2,3,4,5,6-pentafluoro-N-(4-fluorobenzyl)benzenesulfonamide]	2	0.7				
O=S(=O)(c1c(F)c(F)c(F)c(F)c1F)N(Cc1ccccc1)C1CC1 [Compound I-6, N-benzyl-N-cyclopropyl-2,3,4,5,6-pentafluorobenzenesulfonamide]	1.3	1.3			17.5	
O=S(=O)(c1c(F)c(F)c(F)c(F)c1F)N(Cc1ccncc1)C1CC1 [Compound I-9, N-cyclopropyl-2,3,4,5,6-pentafluoro-N-(pyridin-4-ylmethyl)benzenesulfonamide]	1.62	1.83				
O=S(=O)(c1c(F)c(F)c(F)c(F)c1F)N(C1CC1)C(c1ccc(F)cc1)C(F)(F)F (stereo not shown) [Compound I-10, N-cyclopropyl-2,3,4,5,6-pentafluoro-N-(2,2,2-trifluoro-1-(4-fluorophenyl)ethyl)benzenesulfonamide]	9.83	0.974				
O=S(=O)(c1c(F)c(F)c(F)c(F)c1F)N(Cc1cccc(F)c1)C1CC1 [Compound I-11, N-cyclopropyl-2,3,4,5,6-pentafluoro-N-(3-fluorobenzyl)benzenesulfonamide]	3.37	1.7			9	
COc1ccc(CN(C2CC2)S(=O)(=O)c2c(F)c(F)c(F)c(F)c2F)cc1F [Compound I-17, N-cyclopropyl-2,3,4,5,6-pentafluoro-N-(3-fluoro-4-methoxybenzyl)benzenesulfonamide]	0.63	0.79			16.2	
CCOC(=O)C1(N(Cc2ccc(F)cn2)S(=O)(=O)c2c(F)c(F)c(F)c(F)c2F)CC1 [Compound I-18, Ethyl 1-((2,3,4,5,6-pentafluoro-N-((5-fluoropyridin-2-yl)methyl)phenyl)sulfonamido)cyclopropane-1-carboxylate]	6.2	2.8				
NC(=O)c1ccc(CN(C2CC2)S(=O)(=O)c2c(F)c(F)c(F)c(F)c2F)cc1 [Compound I-20, 4-(((N-cyclopropyl-2,3,4,5,6-pentafluorophenyl)sulfonamido)methyl)benzamide]	1.7	1.05				4.9
COc1cc(CN(C2CC2)S(=O)(=O)c2c(F)c(F)c(F)c(F)c2F)cc(OC)c1 [Compound I-22, N-cyclopropyl-N-(3,5-dimethoxybenzyl)-2,3,4,5,6-pentafluorobenzenesulfonamide]	4.5	4.7				
